Like-named read-outs stand apart in the source and are kept apart here.
Legend:
[1] = molecular target: T1, IRAK4 (Homo sapiens, UniProt Q9NWZ3); experiment: IRAK4 degradation in OCI-LY10 (MSD); format: cell-based; settings: OCI-LY10 cells
T1 construct: endogenous in cells; host or cells: OCI-LY10
T1 sequence (Q9NWZ3 1-460): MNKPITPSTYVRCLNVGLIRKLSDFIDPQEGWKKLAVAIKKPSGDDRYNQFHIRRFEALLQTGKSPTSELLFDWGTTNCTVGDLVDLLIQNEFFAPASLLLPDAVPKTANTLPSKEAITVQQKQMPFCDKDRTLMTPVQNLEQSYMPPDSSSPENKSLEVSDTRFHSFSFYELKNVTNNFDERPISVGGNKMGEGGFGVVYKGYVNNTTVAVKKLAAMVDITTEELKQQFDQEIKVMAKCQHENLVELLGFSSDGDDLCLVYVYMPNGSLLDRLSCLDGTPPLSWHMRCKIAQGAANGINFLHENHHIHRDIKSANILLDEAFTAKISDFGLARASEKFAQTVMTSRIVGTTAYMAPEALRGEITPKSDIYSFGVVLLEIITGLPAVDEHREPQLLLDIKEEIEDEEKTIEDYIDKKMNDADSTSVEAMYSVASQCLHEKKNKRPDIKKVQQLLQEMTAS
Procedure: IRAK4 degradation in OCI-LY10 (MSD)
Degradation of IRAK4 in OCI-LY10 was quantitatively measured using Meso Scale Discovery technology. OCI-LY10 cells were seeded in 96-well plates (Corning 3799) with a density of 300,000 cells per well in 100 μL fresh media. Compounds were then added to the assay plates with a final top concentration of 1 to 10 μM in a 1:3 dilution series with total of 8 doses. The assay plates were then incubated for 4 to 24 hours at 37° C. under 5% CO2. The assay plates were then centrifuged for 5 minutes and the cell pellets were treated with 100 μL/well RIPA lysis buffer (Boston BioProducts BP-115D) with proteinase inhibitors. To prepare MSD assay plates (Meso Scale Discovery Catalog number L15XA-3), the plates were coated with 2 μg/mL capture antibody (mouse Anti-IRAK4 antibody [2H9], ab119942) in PBS, at 40 μL/well. The plates were then incubated overnight at 4° C., washed 3 times with 150 μL/well TBST buffer (Cell Signaling Technology, Catalog number 9997S) and blocked with 150 μL well blocking buffer (Meso Scale Discovery Catalog number R93BA-4). Cell lysates were then added to MSD assay plates and the plates were incubated at room temperature for 1 hour. The plates were then washed 3 times with 150 μL/well TBST buffer and 25 μL/well primary detection antibody (rabbit Anti-IRAK4 antibody [Y279], from Abcam. Catalog number ab32511, 1 μg/mL). The assay plates were then incubated at room temperature for 1 hour, washed 3 times with 150 TBST buffer and 25A/well secondary detection antibody, SULFO-TAG anti-rabbit antibody were added (anti rabbit antibody from Meso Scale Discovery, Catalog number R32AB-1, 1 μg/mL). The assay plates were then incubated at room temperature for 1 hour, washed 3 times with 150 TBST buffer, and 150 MSD reading buffer (Meso Scale Discovery catalog number R92TC-2) was added. The plates were then analyzed by a MSD reader (Meso Scale Discovery, Model Quick Plex SQ 120). The data was then analyzed by software Prism 7.0 from GraphPad and the dose-depended IRAK4 degradation were fit using a three-parameter logistic equation to calculate DC50.

[2] = test system: OCI-LY10; experiment: CTG Cell Viability Assay - OCI-LY10 (CellTiter-Glo); format: cell-based; settings: Homo sapiens, 96 h; OCI-LY10 cells, 4 days incubation; read-out: CTG Cell Viability Assay-OCI-LY100: Average external-IC50
Procedure: Cell viability assay with OCI-LY10 and TMD8
Compound-mediated viability effect on OCI-LY10 or TMD8 were quantitatively determined using the CellTiter-Glo® Luminescent Cell Viability Assay kit from Promega (Catalog number G7570) following manufacturer's recommended procedures. Briefly, OCI-LY10 or TMD8 cells is seeded into 384 well plates (Grenier Bio-One, Catalog number 781080) with a density of 10,000 cells per well. Compounds were then added to the assay plate with final top concentration of 10 μM and 1:3 dilution series with total of 9 doses. The final DMSO concentration was normalized to 0.2%. The assay plates were incubated at 37° C. for 4 days under 5% CO2. Then the assay plate was equilibrated at room temperature for 10 minutes. To determine cell viability, 30 μL CellTiter Glo reagent was added to each well and the assay plate was centrifuged at 1000 rpm for 30 second, incubated at room temperature for 10 min, and analyzed by detecting the luminescence using a multimode plate reader (EnVision 2105, PerkinElmer). The data was then analyzed by software Prism 7.0 from GraphPad and the dose response curves were fit using a three-parameter logistic equation to calculate IC50.

[3] = 4 hrs incubation, read-out: IRAK4 MSD degradation in OCI-LY10 at 4 hrs: Average external-Abs DC50
[4] = 24 hrs incubation, read-out: IRAK4 MSD degradation in OCI-LY10 at 24 hrs: Average external-Abs DC50

Compound | DC50 [1, 3] [nM] | DC50 [1, 4] [nM] | IC50 [2] [nM]
CN(CCCNC(=O)COc1ccc2c(c1)CCCN2C(=O)CCl)C[C@H]1CC[C@H](n2cc(NC(=O)c3coc(-c4ccnc(NCC5CC5)c4)n3)c(C(F)F)n2)CC1 [I-1, N-(1-((1r,4r)-4-(((3-(2-((1-(2-chloroacetyl)-1,2,3,4-tetrahydroquinolin-6-yl)oxy)acetamido)propyl)(methyl)amino)methyl)cyclohexyl)-3-(difluoromethyl)-1H-pyrazol-4-yl)-2-(2-((cyclopropylmethyl)amino)pyridin-4-yl)oxazole-4-carboxamide] | > 1000 | > 1000 | > 1000
CN(CCCCCNC(=O)COc1ccc2c(c1)CCCN2C(=O)CCl)C[C@H]1CC[C@H](n2cc(NC(=O)c3coc(-c4ccnc(NCC5CC5)c4)n3)c(C(F)F)n2)CC1 [I-2] | > 1000 | > 1000 | > 1000
CN(CCCCCCCNC(=O)COc1ccc2c(c1)CCCN2C(=O)CCl)C[C@H]1CC[C@H](n2cc(NC(=O)c3coc(-c4ccnc(NCC5CC5)c4)n3)c(C(F)F)n2)CC1 [I-3] | > 1000 | > 1000 | > 1000
CN(CCCCCCCCCNC(=O)COc1ccc2c(c1)CCCN2C(=O)CCl)C[C@H]1CC[C@H](n2cc(NC(=O)c3coc(-c4ccnc(NCC5CC5)c4)n3)c(C(F)F)n2)CC1 [I-4] | – | > 1000 | > 1000
CN(CCCCOc1ccc(Oc2ccc(N(Cc3ccccc3)C(=O)CCl)cc2)cc1)C[C@H]1CC[C@H](n2cc(NC(=O)c3coc(-c4ccnc(NCC5CC5)c4)n3)c(C(F)F)n2)CC1 [I-5] | > 1000 | > 1000 | > 1000
CN(CCCCCCOc1ccc(Oc2ccc(N(Cc3ccccc3)C(=O)CCl)cc2)cc1)C[C@H]1CC[C@H](n2cc(NC(=O)c3coc(-c4ccnc(NCC5CC5)c4)n3)c(C(F)F)n2)CC1 [I-6] | > 1000 | > 1000 | 500 to 1000
CN(CCCCCCCCOc1ccc(Oc2ccc(N(Cc3ccccc3)C(=O)CCl)cc2)cc1)C[C@H]1CC[C@H](n2cc(NC(=O)c3coc(-c4ccnc(NCC5CC5)c4)n3)c(C(F)F)n2)CC1 [I-7] | > 1000 | 100 to 1000 | 500 to 1000
CN(CCCCCCCCCCOc1ccc(Oc2ccc(N(Cc3ccccc3)C(=O)CCl)cc2)cc1)C[C@H]1CC[C@H](n2cc(NC(=O)c3coc(-c4ccnc(NCC5CC5)c4)n3)c(C(F)F)n2)CC1 [I-8, N-(1-((1r,4r)-4-(((10-(4-(4-(N-benzyl-2-chloroacetamido)phenoxy)phenoxy)decyl)(methyl)amino)methyl)cyclohexyl)-3-(difluoromethyl)-1H-pyrazol-4-yl)-2-(2-((cyclopropylmethyl)amino)pyridin-4-yl)oxazole-4-carboxamide] | > 1000 | 100 to 1000 | 500 to 1000
COCC(=O)N1CCCc2cc(OCC(=O)NCCCCCN(C)C[C@H]3CC[C@H](n4cc(NC(=O)c5coc(-c6ccnc(NCC7CC7)c6)n5)c(C(F)F)n4)CC3)ccc21 [I-9, 2-[2-(cyclopropylmethylamino)-4-pyridyl]-N-[3-(difluoromethyl)-1-[4-[[5-[[2-[[1-(2-methoxyacetyl)-3,4-dihydro-2H-quinolin-6-yl]oxy]acetyl]amino]pentyl-methyl-amino]methyl]cyclohexyl]pyrazol-4-yl]oxazole-4-carboxamide] | > 1000 | > 1000 | > 1000
COCC(=O)N(Cc1ccccc1)c1ccc(Oc2ccc(OCCCCN(C)C[C@H]3CC[C@H](n4cc(NC(=O)c5coc(-c6ccnc(NCC7CC7)c6)n5)c(C(F)F)n4)CC3)cc2)cc1 [I-11] | – | > 1000 | 500 to 1000
CN(CCCCOc1ccc(Oc2ccc(N(Cc3ccccc3)C(=O)CCl)cc2)cc1)C[C@H]1CC[C@H](n2cc(N(C)C(=O)c3coc(-c4ccnc(NCC5CC5)c4)n3)c(C(F)F)n2)CC1 [I-12] | – | > 1000 | 500 to 1000
